# Experiments:
# [1] = system: Plasma; test: Drug level in cynomolgus monkey plasma assessed as compound formation treated with [14C]brivanib alaninate at 10 mg/kg, po administered as single dose via gavage measured after 6 hrs by HPLC analysis; format: ADME, organism-based, Macaca fascicularis; details: in vivo
# [2] = system: Plasma; test: Drug level in Sprague-Dawley rat plasma assessed as compound formation treated with [14C]brivanib alaninate at 100 mg/kg, po administered as single dose via gavage measured after 1 hr by HPLC analysis; format: ADME, organism-based; details: in vivo
# [3] = Drug excretion in human urine treated with [14C]brivanib alaninate at 800 mg, po administered as single dose […] by HPLC analysis; format: ADME, organism-based; details: in vivo
# [4] = system: Plasma; test: Drug level in cynomolgus monkey plasma assessed as compound formation treated with [14C]brivanib alaninate at 10 mg/kg, po administered as single dose via gavage measured after 4 hrs by HPLC analysis; format: ADME, organism-based, Macaca fascicularis; details: in vivo
# [5] = system: Plasma; test: Drug level in cynomolgus monkey plasma assessed as compound formation treated with [14C]brivanib alaninate at 10 mg/kg, po administered as single dose via gavage measured after 1 hr by HPLC analysis; format: ADME, organism-based, Macaca fascicularis; details: in vivo
# [6] = Drug excretion in human feces treated with [14C]brivanib alaninate at 800 mg, po administered as single dose […] by HPLC analysis; format: ADME, organism-based; details: in vivo
# [7] = system: Plasma; test: Drug level in cynomolgus monkey plasma assessed as compound formation treated with [14C]brivanib alaninate at 10 mg/kg, po administered as single dose via gavage measured after 2 hrs by HPLC analysis; format: ADME, organism-based, Macaca fascicularis; details: in vivo
# [8] = Drug excretion in cynomolgus monkey feces treated with [14C]brivanib alaninate at 10 mg/kg, po administered as single dose via gavage by HPLC analysis; format: ADME, organism-based, Macaca fascicularis; details: in vivo
# [9] = system: Cynomolgus monkey; test: Drug uptake in cynomolgus monkey plasma treated with [14C]brivanib alaninate assessed as AUC (0 to 12 hrs) of total radio activity at 10 mg/kg, po administered as single oral dose by HPLC analysis; format: ADME, organism-based, Macaca fascicularis; details: in vivo
# [10] = Drug excretion in Sprague-Dawley rat feces treated with [14C]brivanib alaninate at 100 mg/kg, po administered as single dose via gavage by HPLC analysis; format: ADME, organism-based; details: in vivo
# [11] = system: Plasma; test: Drug level in human plasma assessed as compound formation treated with [14C]brivanib alaninate at 800 mg, po administered as single dose via gavage measured after 12 hrs by HPLC analysis; format: ADME, organism-based; details: in vivo
# [12] = target: Vascular endothelial growth factor receptor 2 (Homo sapiens, UniProt P35968); test: Inhibition of human recombinant VEGFR-2
# Chain of Vascular endothelial growth factor receptor 2 (P35968 whole entry): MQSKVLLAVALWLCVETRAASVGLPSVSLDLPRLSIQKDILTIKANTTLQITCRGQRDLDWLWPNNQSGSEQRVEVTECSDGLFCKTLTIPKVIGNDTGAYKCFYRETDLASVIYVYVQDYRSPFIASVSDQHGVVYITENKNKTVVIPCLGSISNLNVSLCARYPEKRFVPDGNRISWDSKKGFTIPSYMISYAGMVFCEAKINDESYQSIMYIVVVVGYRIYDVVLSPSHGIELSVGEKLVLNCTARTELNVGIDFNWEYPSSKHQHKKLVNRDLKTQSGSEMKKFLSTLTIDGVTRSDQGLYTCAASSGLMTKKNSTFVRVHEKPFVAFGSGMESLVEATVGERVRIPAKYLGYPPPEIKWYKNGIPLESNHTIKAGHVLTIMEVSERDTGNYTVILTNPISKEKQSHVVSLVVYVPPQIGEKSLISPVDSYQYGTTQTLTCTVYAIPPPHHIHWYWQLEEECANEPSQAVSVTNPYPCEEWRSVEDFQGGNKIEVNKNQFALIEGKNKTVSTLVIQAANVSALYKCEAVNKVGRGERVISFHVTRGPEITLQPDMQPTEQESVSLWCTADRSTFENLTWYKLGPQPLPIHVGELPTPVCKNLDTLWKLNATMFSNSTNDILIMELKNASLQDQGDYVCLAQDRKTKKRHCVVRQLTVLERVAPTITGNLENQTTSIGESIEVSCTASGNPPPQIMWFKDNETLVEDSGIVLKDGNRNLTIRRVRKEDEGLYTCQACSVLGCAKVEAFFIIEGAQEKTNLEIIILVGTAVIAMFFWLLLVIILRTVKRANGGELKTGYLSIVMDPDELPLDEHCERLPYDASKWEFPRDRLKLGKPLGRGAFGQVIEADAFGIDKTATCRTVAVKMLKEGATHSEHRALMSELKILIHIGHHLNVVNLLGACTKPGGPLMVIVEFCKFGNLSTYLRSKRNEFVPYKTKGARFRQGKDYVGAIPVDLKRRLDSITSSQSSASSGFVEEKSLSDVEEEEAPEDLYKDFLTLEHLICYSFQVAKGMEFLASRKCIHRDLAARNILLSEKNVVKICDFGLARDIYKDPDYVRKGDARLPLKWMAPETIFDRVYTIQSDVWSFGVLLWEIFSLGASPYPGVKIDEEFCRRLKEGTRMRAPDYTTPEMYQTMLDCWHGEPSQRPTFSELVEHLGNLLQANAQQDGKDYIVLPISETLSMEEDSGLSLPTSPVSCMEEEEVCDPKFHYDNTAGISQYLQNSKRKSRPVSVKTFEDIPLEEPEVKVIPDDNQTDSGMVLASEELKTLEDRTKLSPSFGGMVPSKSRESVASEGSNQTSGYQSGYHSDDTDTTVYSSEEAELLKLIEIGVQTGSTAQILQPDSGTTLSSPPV
# [13] = system: Rattus norvegicus; test: Drug uptake in Sprague-Dawley rat plasma treated with [14C]brivanib alaninate assessed as AUC (0 to 6 hrs) of total radio activity at 100 mg/kg, po administered as single oral dose by HPLC analysis; format: ADME, organism-based; details: in vivo
# [14] = system: Plasma; test: Drug level in human plasma assessed as compound formation treated with [14C]brivanib alaninate at 800 mg, po administered as single dose via gavage measured after 4 hrs by HPLC analysis; format: ADME, organism-based; details: in vivo
# [15] = Drug excretion in bile duct-cannulated cynomolgus monkey bile treated with [14C]brivanib alaninate at 10 mg/kg, po administered as single dose via gavage by HPLC analysis; format: ADME, organism-based, Macaca fascicularis; details: in vivo
# [16] = system: Homo sapiens; test: AUC (0 to 12 hrs) human plasma treated with [14C]brivanib alaninate at 800 mg, po administered as single oral dose by HPLC analysis; format: ADME, organism-based; details: in vivo
# [17] = system: Rattus norvegicus; test: AUC (0 to 6 hrs) Sprague-Dawley rat plasma treated with [14C]brivanib alaninate at 100 mg/kg, po administered as single oral dose by HPLC analysis; format: ADME, organism-based; details: in vivo
# [18] = system: Plasma; test: Drug level in Sprague-Dawley rat plasma assessed as compound formation treated with [14C]brivanib alaninate at 100 mg/kg, po administered as single dose via gavage measured after 6 hrs by HPLC analysis; format: ADME, organism-based; details: in vivo
# [19] = system: Plasma; test: Drug level in human plasma assessed as compound formation treated with [14C]brivanib alaninate at 800 mg, po administered as single dose via gavage measured after 8 hrs by HPLC analysis; format: ADME, organism-based; details: in vivo
# [20] = Drug excretion in cynomolgus monkey urine treated with [14C]brivanib alaninate at 10 mg/kg, po administered as single dose via gavage by HPLC analysis; format: ADME, organism-based, Macaca fascicularis; details: in vivo
# [21] = Drug excretion in Sprague-Dawley rat urine treated with [14C]brivanib alaninate at 100 mg/kg, po administered as single dose via gavage by HPLC analysis; format: ADME, organism-based; details: in vivo
# [22] = system: Plasma; test: Drug level in human plasma assessed as compound formation treated with [14C]brivanib alaninate at 800 mg, po administered as single dose via gavage measured after 1 hr by HPLC analysis; format: ADME, organism-based; details: in vivo
# [23] = system: Plasma; test: Drug level in Sprague-Dawley rat plasma assessed as compound formation treated with [14C]brivanib alaninate at 100 mg/kg, po administered as single dose via gavage measured after 2 hrs by HPLC analysis; format: ADME, organism-based; details: in vivo
# [24] = system: Cynomolgus monkey; test: AUC (0 to 12 hrs) cynomolgus monkey plasma treated with [14C]brivanib alaninate at 10 mg/kg, po administered as single oral dose by HPLC analysis; format: ADME, organism-based, Macaca fascicularis; details: in vivo
# [25] = Drug excretion in bile duct-cannulated rat bile treated with [14C]brivanib alaninate at 100 mg/kg, po administered as single dose via gavage by HPLC analysis; format: ADME, organism-based; details: in vivo
# [26] = system: Plasma; test: Drug level in human plasma assessed as compound formation treated with [14C]brivanib alaninate at 800 mg, po administered as single dose via gavage measured after 2 hrs by HPLC analysis; format: ADME, organism-based; details: in vivo
# [27] = target: Fibroblast growth factor receptor 1 (Homo sapiens, UniProt P11362); test: Inhibition of human recombinant FGFR-1
# Chain of Fibroblast growth factor receptor 1 (P11362 whole entry): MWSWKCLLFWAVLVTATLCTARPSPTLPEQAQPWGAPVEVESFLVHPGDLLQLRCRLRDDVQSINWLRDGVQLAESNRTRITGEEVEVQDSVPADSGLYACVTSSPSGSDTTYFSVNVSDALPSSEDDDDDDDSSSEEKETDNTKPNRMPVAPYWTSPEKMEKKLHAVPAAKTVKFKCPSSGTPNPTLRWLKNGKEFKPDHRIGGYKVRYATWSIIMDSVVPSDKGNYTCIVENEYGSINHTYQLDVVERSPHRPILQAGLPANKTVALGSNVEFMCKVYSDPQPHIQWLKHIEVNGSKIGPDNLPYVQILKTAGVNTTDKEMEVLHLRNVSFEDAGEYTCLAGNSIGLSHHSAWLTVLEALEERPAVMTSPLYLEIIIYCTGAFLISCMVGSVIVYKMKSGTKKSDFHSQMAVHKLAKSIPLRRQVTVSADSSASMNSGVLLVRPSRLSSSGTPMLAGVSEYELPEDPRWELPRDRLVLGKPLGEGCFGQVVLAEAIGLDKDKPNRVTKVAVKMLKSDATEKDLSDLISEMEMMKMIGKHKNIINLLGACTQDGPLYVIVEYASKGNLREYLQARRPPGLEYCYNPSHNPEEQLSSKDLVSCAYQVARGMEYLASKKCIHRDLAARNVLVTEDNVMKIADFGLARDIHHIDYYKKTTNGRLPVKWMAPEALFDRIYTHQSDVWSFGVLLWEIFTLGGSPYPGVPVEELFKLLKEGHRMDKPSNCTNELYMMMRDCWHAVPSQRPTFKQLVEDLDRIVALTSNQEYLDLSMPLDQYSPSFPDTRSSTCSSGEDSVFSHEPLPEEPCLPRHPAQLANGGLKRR
# [28] = system: Homo sapiens; test: Drug uptake in human plasma treated with [14C]brivanib alaninate assessed as AUC (0 to 12 hrs) of total radio activity at 800 mg, po administered as single oral dose by HPLC analysis; format: ADME, organism-based; details: in vivo
# [29] = system: Plasma; test: Drug level in cynomolgus monkey plasma assessed as compound formation treated with [14C]brivanib alaninate at 10 mg/kg, po administered as single dose via gavage measured after 12 hrs by HPLC analysis; format: ADME, organism-based, Macaca fascicularis; details: in vivo
# [30] = Drug level in cynomolgus monkey urine treated with [14C]brivanib alaninate at 10 mg/kg, po administered as single dose via gavage by mass spectrometry; format: ADME, organism-based, Macaca fascicularis; details: in vivo
# [31] = system: Homo sapiens; test: Cmax in human plasma treated with [14C]brivanib alaninate at 800 mg, po administered as single dose […] by LC-MS/MS analysis; format: ADME, organism-based; details: in vivo
# [32] = system: Liver microsome; test: Drug metabolism in human liver microsomes assessed as (R)-1-(4-(4-fluoro-2-(hydroxymethyl)-1H-indol-5-yloxy)-5-methylpyrrolo[1,2-f][1,2,4]triazin-6-yloxy)propan-2-ol formation by LC-MS/MS analysis in presence of NADPH; format: ADME
# [33] = system: Rattus norvegicus; test: AUC (0 to t) in Sprague-Dawley rat plasma treated with [14C]brivanib alaninate at 100 mg/kg, po administered as single dose via gavage by LC-MS/MS analysis; format: ADME, organism-based; details: in vivo
# [34] = system: Cynomolgus monkey; test: Cmax in cynomolgus monkey plasma treated with [14C]brivanib alaninate at 10 mg/kg, po administered as single dose via gavage by LC-MS/MS analysis; format: ADME, organism-based, Macaca fascicularis; details: in vivo
# [35] = system: Cynomolgus monkey; test: AUC (0 to t) in cynomolgus monkey plasma treated with [14C]brivanib alaninate at 10 mg/kg, po administered as single dose via gavage by LC-MS/MS analysis; format: ADME, organism-based, Macaca fascicularis; details: in vivo
# [36] = system: Homo sapiens; test: Tmax in human plasma treated with [14C]brivanib alaninate at 800 mg, po administered as single dose […] by LC-MS/MS analysis; format: ADME, organism-based; details: in vivo
# [37] = system: Cynomolgus monkey; test: Tmax in cynomolgus monkey plasma treated with [14C]brivanib alaninate at 10 mg/kg, po administered as single dose via gavage by LC-MS/MS analysis; format: ADME, organism-based, Macaca fascicularis; details: in vivo
# [38] = system: Homo sapiens; test: AUC (0 to t) in human plasma treated with [14C]brivanib alaninate at 800 mg, po administered as single dose […] by LC-MS/MS analysis; format: ADME, organism-based; details: in vivo
# [39] = system: Rattus norvegicus; test: Cmax in Sprague-Dawley rat plasma treated with [14C]brivanib alaninate at 100 mg/kg, po administered as single dose via gavage by LC-MS/MS analysis; format: ADME, organism-based; details: in vivo
# [40] = system: Rattus norvegicus; test: Tmax in Sprague-Dawley rat plasma treated with [14C]brivanib alaninate at 100 mg/kg, po administered as single dose via gavage by LC-MS/MS analysis; format: ADME, organism-based; details: in vivo
SMILES,Compound recovery [1] [%],Compound recovery [2] [%],Compound recovery [3],Compound recovery [4] [%],Compound recovery [5] [%],Compound recovery [6] [%],Compound recovery [7] [%],Compound recovery [8] [%],AUC metabolite/AUC radiolabel [9] [%],Compound recovery [10] [%],Compound recovery [11] [%],AUC metabolite/AUC radiolabel [13] [%],Compound recovery [14] [%],Compound recovery [15],AUC [16] [ugequiv/l.hr],AUC [17] [ugequiv/l.hr],Compound recovery [18] [%],Compound recovery [19] [%],Compound recovery [21],Compound recovery [25],other results
Cc1c(OC[C@@H](C)O)cn2ncnc(Oc3ccc4[nH]c(C(=O)O)cc4c3F)c12,6.9,5.1,0.4%,8.6,3.1,7.4,6.4,22,7.2,12.8,4.6,9.2,11.4,10.5%,4119.3,12825.3,5.3,4.9,0.5%,0.9%,IC50 [12]: > 30 µM; Compound recovery [20]: 1.1%; Compound recovery [22]: 6.8%; Compound recovery [23]: 5.3%; AUC [24]: 5006 ugequiv/l.hr; Compound recovery [26]: 7.6%; IC50 [27]: > 30 µM; AUC metabolite/AUC radiolabel [28]: 6.3%; Compound recovery [29]: 3.5%
Cc1c(OC[C@@H](C)OS(=O)(=O)O)cn2ncnc(Oc3ccc4[nH]c(C(=O)O)cc4c3F)c12,,,2.4%,,,26.6,,4,,5.7,,,,4.9%,,,,,metabolite_not_detected,2.5%,Compound recovery [30]: metabolite_detected
Cc1cc2c(F)c(Oc3ncnn4cc(OC[C@@H](C)O)c(C)c34)ccc2[nH]1 [BRIVANIB],60.8,22,metabolite_not_detected,44.2,70.7,7.5,62.7,6.5,61.4,1.8,38,17,57.1,metabolite_not_detected,30257.7,23709.8,14.3,46.7,metabolite_not_detected,metabolite_not_detected,Cmax [31]: 6100 ng/mL; Compound recovery [32]: metabolite_detected; AUCt [33]: 35500 ng·h/mL; Cmax [34]: 6200 ng/mL; AUCt [35]: 49000 ng·h/mL; Tmax [36]: 1 h; Tmax [37]: 2 h; AUCt [38]: 45900 ng·h/mL; Cmax [39]: 6400 ng/mL; Compound recovery [20]: metabolite_not_detected; Compound recovery [22]: 72.4%; Compound recovery [23]: 15.8%; Tmax [40]: 1 h; AUC [24]: 42587.2 ugequiv/l.hr; Compound recovery [26]: 56.9%; AUC metabolite/AUC radiolabel [28]: 46.1%; Compound recovery [29]: 71.9%
